{"source": "patent US20150010474A1", "about": "“Compounds And Methods For Selective Imaging And/Or Ablation” (Auckland Uniservices Limited, priority 2011, published 2015)", "key": {"[1]": {"test_system": "NTR over-expressing E. coli SOS-R2", "assay": "Growth Inhibition assay in 58-membered NTR over-expression library", "format": "cell-based, Escherichia coli", "conditions": "4 h incubation; 400 μM compound 67, 130 μM compound 93, 800 μM compound 97"}, "[2]": {"test_system": "E. coli SOS (DNA damage repair) response", "assay": "SOS assay (β-galactosidase activity) in NTR over-expression library", "format": "cell-based, Escherichia coli", "conditions": "4 h challenge with 8 μM compound 67", "protocol": "FIG. 2 illustrates the metabolism of compound 67 by members of the 58-membered NTR over-expression library as measured by (A) Growth Inhibition assay and (B) SOS assay. (A) Growth Inhibition assay. Turbidity (OD600) of NTR over-expressing cell cultures was recorded directly before and after 4 h incubation with 400 μM compound 67. Percentage Growth Inhibition represents the decrease in OD600 of challenged cells relative to unchallenged control cells for each strain post-incubation (i.e. 100−[100×OD600 of challenged cells/OD600 of unchallenged cells]). Data are the average of 2 independent assays and the error bars indicate ±1 standard deviation. Labelled bars indicate the NfsA and NfsB family members within the NTR library. (B) SOS assay. […] The data presented is the SOS response, measured by β-galactosidase activity (in Miller units), of NTR over-expressing E. coli SOS-R2 after 4 h challenge with 8 μM compound 67. Full details of assay protocol and calculations are as described in G A Prosser, J N Copp, S P Syddall, E M Williams, J B Smaill, W R Wilson, A V Patterson and D F Ackerley. 2010. Discovery and evaluation of Escherichia coli nitroreductases that activate the anti-cancer prodrug CB1954. Biochemical Pharmacology 79: 678-687. Data are the average of 2 independent assays and the error bars indicate ±1 standard deviation. […]"}, "[3]": {"test_system": "HCT-116 cells stably expressing E. coli NfsA", "assay": "Flow cytometry of metabolism and cellular retention (EF5 antibody)", "format": "cell-based, human", "conditions": "20 μM; for Metabolism and cellular retention by FACS, HCT-116 NfsA cells (FIG. 3): 2 hours, oxic conditions (21% O2, 5% CO2)", "protocol": "FIG. 3 illustrates the results of flow cytometry analysis of HCT-116 cells stably expressing E. coli NfsA relative to HCT-116 wild-type cells after in vitro exposure to 20 μM of compounds 15, 93 and 67 for 2 hours. 1×10^6 cells were incubated with test compounds under oxic conditions. Samples were fixed and stained with EF5 antibody Alexa 488 ELK3.51 at 100 μg/ml. Samples were then analysed on a Becton Dickinson FACscan flow cytometer.\nFIG. 4 illustrates the results of a second independent flow cytometry analysis of compound 15 and 93 metabolism and binding in wild-type HCT-116 cells, HCT-116 cells stably over-expressing cytochrome P450 reductase (CYPOR), a human one-electron reductase known to metabolise nitroheterocyclic and nitroaromatic compounds, or HCT-116 cells stably expressing the bacterial nitroreductase E. coli NfsA. 1×10^6HCT-116 cells were seeded in 6 well plates underaerobic conditions (21% O2, 5% CO2). After 2 h incubation, drug free control (wild-type HCT-116, foreground), 20 μM (wild-type HCT-116, second plot), 100 μM (wild-type HCT-116, third plot), 20 μM (HCT-116-CYPOR, forth plot), 100 μM (HCT-116-CYPOR, fifth plot) or 20 μM (HCT-116-NfsA, sixth plot) of compound 15 or 93 was added. After 2 h incubation cells were harvested and fixed with paraformaldehyde before being incubated overnight with 100 μl of 75 μg/ml EF5 CY5 conjugated antibody. Samples were then analysed on a Becton Dickinson FACscan flow cytometer."}, "[4]": {"test_system": "human solid tumour xenograft HCT116 (WT)", "assay": "Hypoxia-dependent binding by immunofluorescent microscopy with pimonidazole co-staining", "format": "in vivo, NIH-III nude mice", "conditions": "60 mg/kg i.p., 60 minutes after 60 mg/kg pimonidazole; tumours excised after 120 minutes", "protocol": "FIG. 9 illustrates the absence of hypoxic dependent binding of compound 67 in the human solid tumour xenograft HCT116 relative to compound 15 whilst including hypoxia co-staining by pimonidazole (Hypoxyprobe™) as an internal reference (positive control). HCT116 WT tumours were inoculated subcutaneously onto the flank of NIH-Ill nude mice. When the mixed tumours reached approximately 500 mm^3, mice were dosed i.p. with 60 mg/kg of pimonidazole, and 60 minutes later dosed with either 60 mg/kg of compound 15 or 60 mg/kg of compound 67. After 120 minutes the tumours were excised, and fixed in formalin before being embedded in paraffin wax. Tumour section were cut (5 microns) and mounted onto glass slides for immunodetection of bound adducts of compounds. Immunofluorescent microscopy was performed using a monoclonal antibody (Mab1, hybridoma clone 4.3.11.3) conjugated to Alexa-488 (green) for the detection of pimonidazole adducts, and monoclonal antibody ELK3-51 directly conjugated to the fluorophore CY5 (Ex/Em 650/670 nm) for detection of adducts formed by compound 15 or compound 67. The overlap of pimonidazole with either one of these markers appears as yellow. Images were acquired on a Zeiss LSM 710 confocal microscope (×20 magnification)."}, "[5]": {"assay": "One-electron reduction potential E(1) by pulse radiolysis", "format": "physicochemical", "conditions": "determined against methylviologen, E(1)MV2+/MV+. = −447 ± 7 mV", "text": "The E(1) values of many compounds can be obtained from the literature, (for example, Wardman, P. J. Phys. Chem. Ref. Data, 1989, 18, 1637-1755.) or determined by a number of methods. The pulse radiolysis method, for example, measures the equilibrium constant between the radical anions of the nitroheterocyclic or nitroaromatic compound, formed upon their 1-electron reduction, and reference standards such as viologen and quinone compounds, from which data the E(1) values of the compounds can be calculated. (Meisel and Czapski. J. Phys. Chem., 1975, 79, 1503-1509.)\n(Anderson et al, J. Phys. Chem. A, 101, 9704-9709, 1997)."}, "NfsB (E.s)": {"test_system": "NfsB (E.s)", "assay": "Initial rate of metabolism by purified recombinant bacterial nitroreductase (NADPH consumption, UV/Vis)", "format": "biochemical, Enterobacter (Chronobacter) sakazakii", "conditions": "compound 500 μM, NADPH 200 μM, 10 mM Tris-Cl pH 7.0; μmol NADPH consumed per mg enzyme per minute", "protocol": "(§1) The relative initial rates of reductive metabolism of the nitro moiety of test compounds by bacterial nitroreductase's can be measured experimentally by incubating the test compound at near-saturating concentration (determined empirically) with the purified recombinant bacterial nitroreductase enzymes in the presence of NADPH co-factor. UV/Vis spectroscopy is used to measure consumption of the co-factor, indicating metabolism of the test compound by the nitroreductase.\n(§2) Compounds 67, 93 and 97 (500 μM) were added to NADPH (200 μM) in 10 mM Tris-Cl pH 7.0. Reactions were initiated by enzyme addition (between 5 and 20 μg per reaction). Rates represent μmol of NADPH consumed per mg enzyme added per minute."}, "NfsB (E.c)": {"molecular_target": "T1, NfsB (E.c) (Escherichia coli, UniProt P38489)", "T1 construct": "made in house", "T1 sequence (P38489 whole entry)": "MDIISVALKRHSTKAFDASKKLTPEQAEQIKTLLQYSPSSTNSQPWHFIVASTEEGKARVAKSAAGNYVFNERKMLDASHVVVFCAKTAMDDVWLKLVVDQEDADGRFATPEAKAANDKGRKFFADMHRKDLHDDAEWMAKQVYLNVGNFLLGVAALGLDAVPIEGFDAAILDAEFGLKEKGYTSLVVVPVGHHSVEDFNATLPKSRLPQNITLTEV", "assay": "Initial rate of metabolism by purified recombinant bacterial nitroreductase (NADPH consumption, UV/Vis)", "format": "biochemical", "conditions": "compound 500 μM, NADPH 200 μM, 10 mM Tris-Cl pH 7.0; μmol NADPH consumed per mg enzyme per minute", "protocol": "as §1, §2"}}}
{"smiles": "Cc1ncc([N+](=O)[O-])n1CC(=O)NCC(F)(F)C(F)(F)F", "note": "[Compound 67, 2-(2-methyl-5-nitro-1H-imidazol-1-yl)-N-(2,2,3,3,3-pentafluoropropyl)acetamide]", "values": [{"measurement": "Reductive metabolism at the nitro moiety by NTR library members (NfsA and NfsB families)", "setting": "[1]", "value": "readily reductively metabolised at the nitro moiety by the majority of NfsA family members along with a subset of the NfsB family"}, {"measurement": "SOS response upon activation", "setting": "[2]", "value": "demonstrates an ability to evoke the E. coli SOS (DNA damage repair) response upon activation"}, {"measurement": "Metabolism and cellular retention by FACS, HCT-116 NfsA cells (FIG. 3)", "setting": "[3]", "value": "excellent substrates for E. coli NfsA"}, {"measurement": "Hypoxia-dependent binding in HCT116 WT tumours (FIG. 9)", "setting": "[4]", "value": "not detected in the pimonidazole positive hypoxic regions of the tumour"}, {"measurement": "E(1)/V", "setting": "[5]", "value": "−0.501", "unit": "V"}, {"measurement": "Rate of metabolism by NfsB (E.s)", "setting": "NfsB (E.s)", "value": 2.4, "unit": "µmol/min/mg"}, {"measurement": "melting point", "value": "149 to 151", "unit": "°C"}]}
{"smiles": "O=C(Cn1cnc([N+](=O)[O-])c1)NCC(F)(F)C(F)(F)F", "note": "[Compound 93, 2-(4-nitro-1H-imidazol-1-yl)-N-(2,2,3,3,3-pentafluoropropyl)acetamide]", "values": [{"measurement": "Rate of metabolism by NfsB (E.c)", "setting": "NfsB (E.c)", "value": 0.82, "unit": "µmol/min/mg"}, {"measurement": "Reductive metabolism at the nitro moiety by NTR library members (NfsA and NfsB families)", "setting": "[1]", "value": "selectively reductively metabolised at the nitro moiety by the NfsA family"}, {"measurement": "Metabolism and cellular retention by FACS, HCT-116 NfsA cells (FIG. 4)", "setting": "[3]; 2 h, aerobic conditions", "value": "excellent substrates for E. coli NfsA"}, {"measurement": "Metabolism and cellular retention by FACS, HCT-116 NfsA cells (FIG. 3)", "setting": "[3]", "value": "excellent substrates for E. coli NfsA"}, {"measurement": "E(1)/V", "setting": "[5]", "value": "−0.578", "unit": "V"}]}
